According to publication PMC10518717, “High-Throughput Screening and Proteomic Characterization of Compounds Targeting Myeloid-Derived Suppressor Cells” (Molecular & Cellular Proteomics : MCP, 2023):

Key:
NUP-MDSC = experiment: Global proteome expression profiling of compound-treated NUP-MDSC (TMT LC-MS/MS); type: cell-based, mouse; details: 72 h; for log2 FC ENT_300/DMSO: 300 nM
Protocol: After treatments, medium was removed, cells were washed twice with PBS, and the cell pellets were further subjected to proteomic sample preparation.
The cell pellet was reconstituted in 2% SDS in 50 mM Tris–HCl pH 7.5 and lysed by heating to 95 °C for 10 min. One microliter of 100% TFA was added to each sample to hydrolyze DNA, and the pH was subsequently adjusted to 8.5 with 3 M Tris solution. Disulfide bonds were reduced with 10 mM DTT for 45 min at 37 °C, followed by alkylation of cysteines with 55 mM CAA for 30 min at room temperature. Prior to tryptic digestion, the detergent was removed from lysates by SP3 cleanup on an Agilent BRAVO system (Agilent Technologies), following the protocol first described by Hughes et al. ([34]). Briefly, lysate containing 200 μg of protein was mixed with SP3 beads, and proteins were precipitated onto a 50:50 mixture of Sera-Mag Speed Bead types A and B (Thermo Fisher Scientific) in 58% acetonitrile. Beads were washed three times with 80% ethanol in water and once with acetonitrile. Tryptic digest was performed in 100 μl of digestion buffer (2 mM CaCl2 in 25 mM Hepes, pH 8.5) with a 1:50 enzyme-to-protein ratio. Bead-precipitated proteins were digested at 37 °C overnight. On the next day, the supernatant of each sample was transferred to a new well and vacuum dried.
Dried peptides were reconstituted in water and labeled with the respective TMT10plex-labeling reagent as described previously ([35]) with a protein to tandem mass tag (TMT) reagent ratio of 1:2. Labeled samples were pooled, vacuum dried, and reconstituted in 0.1% formic acid (FA) prior to desalting on SepPAC50 columns (waters corp.). Peptides were fractionated using a Dionex Ultra 3000 HPLC system with a Waters XBridge BEH130 C18 3.5 um 2.1 × 250 mm column as described previously ([36]). Ninety-six fractions were collected and pooled to 48. For the full proteome analysis, one fifth of each fraction was transferred to a new 96-well plate and both plates were vacuum dried. For the phosphopeptide analysis, dried peptides were reconstituted in 55 μl 0.1% TFA in 30% ACN, pooled from 48 to 12 fractions, and mixed with 70 μl priming buffer (0.1% TFA, 100% ACN). Phosphopeptides were enriched from each of the 12 fractions using Fe(III)-IMAC-NTA cartridges on the AssayMAP BRAVO (Agilent Technologies) platform as described previously ([36]). Phosphopeptides were eluted with 60 μl 1% ammonia, vacuum dried, and stored at −20 °C prior to LC-MS/MS analysis.
The Fusion Lumos was operated in data-dependent acquisition and positive ionization mode. Samples were measured employing a MS3 method. In brief, full scan MS1 spectra were recorded in the orbitrap (OT) from 360 to 1560 m/z at 60,000 resolution using an automatic gain control (AGC) target value of 4e5 charges and a maximum injection time (maxIT) of 50 ms. Iontrap-MS2 spectra for peptide identification were acquired using higher energy collision dissociation (HCD) fragmentation with 32% normalized collision energy (NCE), an isolation window of 0.6 m/z, and an AGC target value of 1.2e4 charges. To obtain quantitative information on TMT reporter ions, each peptide precursor was fragmented again as for MS2 analysis followed by synchronous selection of the up to eight most intense peptide fragments in the iontrap ([37]) and further fragmentation via HCD using a NCE of 55%. The MS3 scan was recorded in the OT at 50,000 resolution (scan range 100–1000 m/z, isolation window of 1.2 m/z, AGC of 1e5 charges, maxIT of 86 ms). The cycle time was 1.2 s, and the dynamic exclusion lasted for 50 s.
Peptide, protein, and phosphorylation site identification and quantification were performed with MaxQuant software (v. 1.6.3.3, https://www.maxquant.org/) with standard settings for reporter ion MS3 unless described otherwise ([39]). Isotope impurities of the TMT lot were specified to allow MaxQuant the automated correction of TMT intensities. […]

NUP-MDSC cell lysate [1] = target: T1, NUP-MDSC cell lysate (Mus musculus, UniProt G5E8Z3); experiment: Chemoproteomic competition pulldown assay (iCor/iEnt affinity matrix), proteome-wide; type: binding; details: protein 2310050C09Rik (G5E8Z3)
T1 construct: endogenous in cells; host or cells: mouse NUP-MDSC (lysate)
Description: (§1) Targets of the inhibitors were annotated manually.

NUP-MDSC cell lysate [2] = target: T2, NUP-MDSC cell lysate (Mus musculus, UniProt Q8WUR0); experiment: as above; type: binding; details: protein 1600014C10Rik (Protein C19orf12 homolog)
T2 construct: endogenous in cells; host or cells: mouse NUP-MDSC (lysate)
T2 sequence (Q8WUR0 1-141): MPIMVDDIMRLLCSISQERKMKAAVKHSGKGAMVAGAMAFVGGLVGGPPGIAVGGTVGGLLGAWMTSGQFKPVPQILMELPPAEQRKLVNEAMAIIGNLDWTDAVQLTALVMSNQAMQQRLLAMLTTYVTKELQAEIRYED
Description: as §1

NUP-MDSC cell lysate [3] = experiment: as above; type: binding, mouse; details: NUP-MDSC lysate; iCor and iEnt
Description: as §1

[4] = test system: HDAC1/2 and the CoREST complex; details: NUP-MDSC lysate; competition with iCor pulldown
Protocol: In vitro–differentiated NUP-MDSC were harvested, washed twice with PBS, and cell pellets were stored at −80 °C. For lysis, the pellets were slowly thawed at 20 °C and mixed with lysis buffer (0.8% Igepal, 50 mM Tris–HCl pH 7.5, 5% glycerol, 1.5 mM MgCl2, 150 mM NaCl, 1 mM Na3VO4, 25 mM NaF, 1 mM DTT, and supplemented with protease inhibitors (SigmaFast, Sigma) and phosphatase inhibitors (prepared in-house according to phosphatase inhibitor cocktail 1, 2, and 3 from Sigma-Aldrich)). Before usage, the cell lysates were cleared from debris by ultracentrifugation (52,000×g for 20 min at 4 °C); protein concentration was determined by Bradford assay. […]
Peptides were analyzed via LC-MS/MS on a Dionex Ultimate3000 nano HPLC coupled to an Orbitrap Fusion Lumos mass spectrometer (Thermo Fisher Scientific). […]
The mass spectrometer was operated in data-dependent mode, automatically switching between MS1 and MS2 spectra. […] Up to 12 peptide precursors were isolated (isolation width of 1.2 Th, maxIT of 75 ms, AGC value of 2e5), fragmented by HCD using 30% NCE, and analyzed in the OT at a resolution of 15,000. […]
Protein identification and quantification was performed using MaxQuant (v 1.6.1.0) by searching the LC-MS/MS data against all canonical protein sequences as annotated in the Swissprot reference database (v03.12.15, 20,193 entries, downloaded 22.03.2016) using the embedded search engine Andromeda. […]

T1 sequence (G5E8Z3 1-280): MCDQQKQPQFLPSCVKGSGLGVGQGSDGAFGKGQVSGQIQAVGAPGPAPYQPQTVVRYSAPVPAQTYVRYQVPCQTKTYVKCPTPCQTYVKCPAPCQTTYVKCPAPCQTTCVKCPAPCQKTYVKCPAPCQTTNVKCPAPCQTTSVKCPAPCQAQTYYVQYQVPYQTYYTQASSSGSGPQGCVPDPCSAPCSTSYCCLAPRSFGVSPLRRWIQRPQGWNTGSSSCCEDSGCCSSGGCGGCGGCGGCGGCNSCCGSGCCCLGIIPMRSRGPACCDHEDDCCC

Nc1ccccc1NC(=O)c1ccc(CNC(=O)OCc2cccnc2)cc1 [entinostat]
protein expression of Il1a, Il1b, and Il1rn (NUP-MDSC; 30 and 300 nM): dose-dependently upregulated | protein level of Cxcr3, Ccl9, and Ccr5 (NUP-MDSC; 30 and 300 nM, dose-dependent manner): increased | log2 FC ENT_300/DMSO (NUP-MDSC; protein Cask): -0.505 | log2 FC ENT_300/DMSO (NUP-MDSC; protein Hsf1): -0.1449 | log2 FC ENT_300/DMSO (NUP-MDSC; protein Inpp5j): 0.4672 | log2 FC ENT_300/DMSO (NUP-MDSC; protein Magohb;Magoh): 0.03399 | Intensity 3nM (NUP-MDSC cell lysate [1]; Entinostat 3nM): 4673000 | LFQ intensity 3nM (NUP-MDSC cell lysate [1]; Entinostat 3nM): 0 | Intensity 10nM (NUP-MDSC cell lysate [1]; Entinostat 10nM): 39076000 | LFQ intensity 10nM (NUP-MDSC cell lysate [1]; Entinostat 10nM): 48940000 | Intensity 30nM (NUP-MDSC cell lysate [1]; Entinostat 30nM): 0 | LFQ intensity 30nM (NUP-MDSC cell lysate [1]; Entinostat 30nM): 0 | Intensity 100nM (NUP-MDSC cell lysate [1]; Entinostat 100nM): 0 | LFQ intensity 100nM (NUP-MDSC cell lysate [1]; Entinostat 100nM): 0 | Intensity 300nM (NUP-MDSC cell lysate [1]; Entinostat 300nM): 63615000 | LFQ intensity 300nM (NUP-MDSC cell lysate [1]; Entinostat 300nM): 92239000 | Intensity 1000nM (NUP-MDSC cell lysate [1]; Entinostat 1000nM): 0 | LFQ intensity 1000nM (NUP-MDSC cell lysate [1]; Entinostat 1000nM): 0 | Intensity 3000nM (NUP-MDSC cell lysate [1]; Entinostat 3000nM): 17259000 | LFQ intensity 3000nM (NUP-MDSC cell lysate [1]; Entinostat 3000nM): 18337000 | Intensity 30000nM (NUP-MDSC cell lysate [1]; Entinostat 30000nM): 37204000 | LFQ intensity 30000nM (NUP-MDSC cell lysate [1]; Entinostat 30000nM): 38240000 | Intensity 3nM (NUP-MDSC cell lysate [2]; Entinostat 3nM): 20883000 | LFQ intensity 3nM (NUP-MDSC cell lysate [2]; Entinostat 3nM): 42321000 | Intensity 10nM (NUP-MDSC cell lysate [2]; Entinostat 10nM): 34795000 | LFQ intensity 10nM (NUP-MDSC cell lysate [2]; Entinostat 10nM): 40587000 | Intensity 30nM (NUP-MDSC cell lysate [2]; Entinostat 30nM): 27408000 | LFQ intensity 30nM (NUP-MDSC cell lysate [2]; Entinostat 30nM): 39634000 | Intensity 100nM (NUP-MDSC cell lysate [2]; Entinostat 100nM): 29285000 | LFQ intensity 100nM (NUP-MDSC cell lysate [2]; Entinostat 100nM): 35458000 | Intensity 300nM (NUP-MDSC cell lysate [2]; Entinostat 300nM): 23203000 | LFQ intensity 300nM (NUP-MDSC cell lysate [2]; Entinostat 300nM): 36056000 | Intensity 1000nM (NUP-MDSC cell lysate [2]; Entinostat 1000nM): 28303000 | LFQ intensity 1000nM (NUP-MDSC cell lysate [2]; Entinostat 1000nM): 37293000 | Intensity 3000nM (NUP-MDSC cell lysate [2]; Entinostat 3000nM): 35943000 | LFQ intensity 3000nM (NUP-MDSC cell lysate [2]; Entinostat 3000nM): 42228000 | Intensity 30000nM (NUP-MDSC cell lysate [2]; Entinostat 30000nM): 27116000 | LFQ intensity 30000nM (NUP-MDSC cell lysate [2]; Entinostat 30000nM): 26320000 | additional targets identified (NUP-MDSC cell lysate [3]): No additional targets | target affinity [4]: high affinities
